The source of these data is patent US9409905B2, “Antibacterial compounds and methods for use” (PTC THERAPEUTICS, INC., priority 2011, dated 2016).

Values after ≈ are worked out from the molar mass of the structure shown.

In test [1] the test system is Escherichia coli (E. coli) BAS849. The test can be described thus: Antibacterial activity, microbroth dilution MIC (Table 1). Type of test: cell-based. The following applies: microbroth dilution, super sensitive Gram-negative E. coli BAS849, read-out: MIC, BAS849. The procedure, abridged:
(§1)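 Read-out: visual absence of growth. The lowest concentration meeting this gives the MIC, expressed in μg/mL, with microbroth dilution as the method.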
For orientation: Broth dilution looks for growth in wells or tubes with falling amounts of substance.

For test [2], the system named is Staphylococcus aureus (S. aureus) 29213. The test is described as above. The class given is cell-based. The following applies: microbroth dilution, Gram-positive S. aureus 29213, read-out: MIC, 29213. The procedure, abridged:
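In a microbroth dilution test, the minimum inhibitory concentration was defined as the lowest compound level preventing growth seen by eye, and was given in μg/mL.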

The test system of test [3] is A. baumannii MXX2240. As to the kind of experiment: Antibacterial activity, MIC, resistant strain (Table 4). Type of test: cell-based. The note with it: Acinetobacter baumannii, MXX2240; resistant A. baumannii MMX2240, multi-drug resistant clinical isolate; read-out: MIC, MMX2240. The text has this: (§2) The antibacterial activity from a microbroth dilution method may be presented as the minimum inhibitory concentration (MIC in μg/mL). The MIC value is the lowest concentration of drug which prevents macroscopically visible growth under test conditions.
(§3) Antibacterial activity of test compounds against the Gram-negative Acinetobacter baumannii (A. baumannii) BAA747 and Klebsiella pneumoniae (K. pneumoniae) 35657 bacterium and the resistant A. baumannii MXX2240 and K. pneumoniae MXX1232 strains are shown in Table 4. The MMX strains are multi-drug resistant clinical isolates.

For test [4], the system named is K. pneumoniae MXX1232. The description is as above. The class given is cell-based. The following applies: Klebsiella pneumoniae, MXX1232; resistant K. pneumoniae MMX1232, multi-drug resistant clinical isolate; read-out: MIC, MMX1232.
Excerpt: as §2, §3

The subject of test [5] is Klebsiella pneumoniae (K. pneumoniae) 35657. The test can be described thus: Antibacterial activity, MIC (Table 4). Type of test: cell-based. The following applies: K. pneumoniae 35657, read-out: MIC, 35657.
Excerpt: as §2, §3

In test [6] the test system is Acinetobacter baumannii (A. baumannii) BAA747. The test can be described thus: Antibacterial activity, MIC (Table 4). The class given is cell-based. The note with it: A. baumannii BAA747, read-out: MIC, BAA747.
Excerpt: as §2, §3

For test [7], the system named is Pseudomonas aeruginosa (P. aeruginosa) 27853. The test can be described thus: Antibacterial activity, MIC (Table 5). The following applies: P. aeruginosa 27853, read-out: MIC, 27853. Type of test: cell-based.
Excerpt: as §2
Antibacterial activity of test compounds against the Gram-negative bacterium Pseudomonas aeruginosa (P. aeruginosa) 27853 is shown in Table 5.

The test system of test [8] is E. coli LZ3111. As to the kind of experiment: Antibacterial activity, MIC, quinolone resistant strain (Table 2). Type of test: cell-based. The note with it: Escherichia coli, LZ3111, read-out: MIC LZ3111. In outline:
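Broth microdilution. Read-out: MIC in μg/mL, taken as lowest concentration with no macroscopically visible growth.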

Test [9] deals with E. coli 25922. As to the kind of experiment: Antibacterial activity, microbroth dilution MIC (Table 1). The class given is cell-based, Escherichia coli. The following applies: Escherichia coli; microbroth dilution; control Gram-negative E. coli 25922 strain; read-out: MIC, 25922. In outline:
as §1

As to `CCc1c(-c2ccc3c(c2)cc2n3C[C@H](CN)[C@@H]2NC)[nH]c(=O)c(C(=O)O)c1O.Cl.Cl` (relative stereo) [Cpd 421, 6-(cis-2-(aminomethyl)-1-(methylamino)-2,3-dihydro-1H-pyrrolo[1,2-a]indol-7-yl)-5-ethyl-4-hydroxy-2-oxo-1,2-dihydropyridine-3-carboxylic acid bis-hydrochloride], the minimal inhibitory concentration (MIC) in [1] is 1 to 3.5 µg/mL; in [2] it was 12.5 to 150 µg/mL; in test [3], 12.5 to 150 µg/mL; in test [4], 12.5 to 150 µg/mL; in test [5], 12.5 to 150 µg/mL; in [6] it was 12.5 to 150 µg/mL. In addition, the MIC in test [7] lay within 12.5 to 150 µg/mL; in [8], 12.5 to 150 µg/mL; in test [9], 3.5 to 12.5 µg/mL.

For `CCc1c(-c2ccc3c(c2)cc2n3C[C@H](N)C[C@H]2NC)[nH]c(=O)c(C(=O)O)c1O.Cl.Cl` (relative stereo) [Cpd 422, 6-(trans-7-amino-9-(methylamino)-6,7,8,9-tetrahydropyrido[1,2-a]indol-2-yl)-5-ethyl-4-hydroxy-2-oxo-1,2-dihydropyridine-3-carboxylic acid bis-hydrochloride], the MIC was 1 to 3.5 µg/mL in test [1]; 12.5 to 150 µg/mL in [2]; 12.5 to 150 µg/mL in test [3]; 12.5 to 150 µg/mL in test [4]; 3.5 to 12.5 µg/mL in test [5]; 12.5 to 150 µg/mL in [6]. The MIC in test [7], in test [8] and in [9] was 12.5 to 150 µg/mL in each case.

`CCc1c(-c2cn(C)c3ccccc23)[nH]c(=O)c(C(=O)O)c1O` [Cpd 14, 5-ethyl-4-hydroxy-6-(1-methyl-1H-indol-3-yl)-2-oxo-1,2-dihydropyridine-3-carboxylic acid]: the MIC in [1] lay within 1 to 3.5 µg/mL (≈ 3.2 to 11.2 µM); in test [2], 3.5 to 12.5 µg/mL (≈ 11.2 to 40 µM); in test [3], 12.5 to 150 µg/mL (≈ 40 to 480 µM); in test [4], 12.5 to 150 µg/mL (≈ 40 to 480 µM); in test [5], 12.5 to 150 µg/mL (≈ 40 to 480 µM); in test [6] it was 12.5 to 150 µg/mL (≈ 40 to 480 µM). The MIC in test [7], in test [8] and in test [9] was 12.5 to 150 µg/mL (≈ 40 to 480 µM) throughout.

Take `CCc1cc(C(=O)O)c(=O)[nH]c1-c1cnc2c(ccn2C)c1` [Cpd 31, 5-ethyl-6-(1-methyl-1H-pyrrolo[2,3-b]pyridin-5-yl)-2-oxo-1,2-dihydropyridine-3-carboxylic acid]: the MIC in test [1] lay in the range of 1 to 3.5 µg/mL (≈ 3.36 to 11.8 µM); in [2], 12.5 to 150 µg/mL (≈ 42 to 505 µM); in test [3], 12.5 to 150 µg/mL (≈ 42 to 505 µM); in test [4], 12.5 to 150 µg/mL (≈ 42 to 505 µM); in test [5] it was 12.5 to 150 µg/mL (≈ 42 to 505 µM); in test [6], 12.5 to 150 µg/mL (≈ 42 to 505 µM). Besides, the minimum inhibitory concentration (MIC) in test [7], in test [8] and in test [9] was 12.5 to 150 µg/mL (≈ 42 to 505 µM) each time.

Consider `CCc1cc(C(=O)O)c(=O)[nH]c1-c1ccc2ncnn2c1.Cl` [Cpd 49, 6-([1,2,4]triazolo[1,5-a]pyridin-6-yl)-5-ethyl-2-oxo-1,2-dihydropyridine-3-carboxylic acid hydrochloride], for which the MIC in test [1], in test [2], in test [3], in test [4], in test [5] and in [6] was 12.5 to 150 µg/mL throughout. Further, the MIC in test [7], in test [8] and in test [9] was 12.5 to 150 µg/mL throughout.

As for `CCc1cc(C(=O)O)c(=O)[nH]c1-c1ccc2nncn2c1.Cl` [Cpd 50, 6-([1,2,4]triazolo[4,3-a]pyridin-6-yl)-5-ethyl-2-oxo-1,2-dihydropyridine-3-carboxylic acid hydrochloride], the MIC in [1], in test [2], in [3], in test [4], in [5] and in test [6] was 12.5 to 150 µg/mL each time. Moreover, the MIC in [7], in [8] and in test [9] was 12.5 to 150 µg/mL in each case.

On to `CCc1cc(C(=O)O)c(=O)[nH]c1-c1ccc2nccn2c1.Cl` [Cpd 51, 5-ethyl-6-(imidazo[1,2-a]pyridin-6-yl)-2-oxo-1,2-dihydropyridine-3-carboxylic acid hydrochloride], for which the MIC in [1], in [2], in test [3], in test [4], in test [5] and in [6] was 12.5 to 150 µg/mL throughout. Besides, the MIC in [7], in [8] and in test [9] was 12.5 to 150 µg/mL in each case.

Turning to `CCc1cc(C(=O)O)c(=O)[nH]c1-c1cnc2c(c1)ncn2C` [Cpd 52, 5-ethyl-6-(3-methyl-3H-imidazo[4,5-b]pyridin-6-yl)-2-oxo-1,2-dihydropyridine-3-carboxylic acid], the minimum inhibitory concentration (MIC) in test [1], in test [2], in test [3], in [4], in [5] and in test [6] was 12.5 to 150 µg/mL (≈ 41.9 to 503 µM) in each case. The MIC in test [7], in test [8] and in [9] was 12.5 to 150 µg/mL (≈ 41.9 to 503 µM) in each case.

As for `CCc1cc(C(=O)O)c(=O)[nH]c1-c1ccc2c(c1)ncn2C` [Cpd 53, 5-ethyl-6-(1-methyl-1H-benzo[d]imidazol-5-yl)-2-oxo-1,2-dihydropyridine-3-carboxylic acid], the MIC lay within 3.5 to 12.5 µg/mL (≈ 11.8 to 42 µM) in test [1]; 12.5 to 150 µg/mL (≈ 42 to 505 µM) in test [2]; 12.5 to 150 µg/mL (≈ 42 to 505 µM) in test [3]; 12.5 to 150 µg/mL (≈ 42 to 505 µM) in [4]; 12.5 to 150 µg/mL (≈ 42 to 505 µM) in test [5]; 12.5 to 150 µg/mL (≈ 42 to 505 µM) in test [6]. The MIC in test [7], in test [8] and in test [9] was 12.5 to 150 µg/mL (≈ 42 to 505 µM) throughout.

For `CCc1cc(C(=O)O)c(=O)[nH]c1-c1ccc2c(c1)cc(CN(C)Cc1ccccc1)n2C` [Cpd 121, 6-(2-((benzyl(methyl)amino)methyl)-1-methyl-1H-indol-5-yl)-5-ethyl-2-oxo-1,2-dihydropyridine-3-carboxylic acid], the minimum inhibitory concentration (MIC) in [1] was below 1 µg/mL; in test [2], 3.5 to 12.5 µg/mL (≈ 8.15 to 29.1 µM); in test [3], 12.5 to 150 µg/mL (≈ 29.1 to 349 µM); in test [4] it was 12.5 to 150 µg/mL (≈ 29.1 to 349 µM); in test [5], 3.5 to 12.5 µg/mL (≈ 8.15 to 29.1 µM); in [6] it was 1 to 3.5 µg/mL (≈ 2.33 to 8.15 µM). Further, the minimal inhibitory concentration (MIC) in [7] was in the range of 12.5 to 150 µg/mL (≈ 29.1 to 349 µM); in [8] it was 12.5 to 150 µg/mL (≈ 29.1 to 349 µM); in test [9], 1 to 3.5 µg/mL (≈ 2.33 to 8.15 µM).

In the case of `CCc1cc(C(=O)O)c(=O)[nH]c1-c1ccc2c(c1)cc(CN(CC)CC)n2C` [Cpd 123, 6-(2-((diethylamino)methyl)-1-methyl-1H-indol-5-yl)-5-ethyl-2-oxo-1,2-dihydropyridine-3-carboxylic acid], the MIC in test [1] is below 1 µg/mL; in test [2], 12.5 to 150 µg/mL (≈ 32.8 to 393 µM); in test [3], 12.5 to 150 µg/mL (≈ 32.8 to 393 µM); in test [4], 12.5 to 150 µg/mL (≈ 32.8 to 393 µM); in test [5], below 1 µg/mL; in test [6] it was 1 to 3.5 µg/mL (≈ 2.62 to 9.17 µM). Also, the values for the minimum inhibitory concentration (MIC) in [7], in [8] and in test [9] were 12.5 to 150 µg/mL (≈ 32.8 to 393 µM), 12.5 to 150 µg/mL (≈ 32.8 to 393 µM) and below 1 µg/mL, respectively.

Consider `CCc1cc(C(=O)O)c(=O)[nH]c1-c1ccc2c(c1)cc(CN1CCOCC1)n2C` [Cpd 137, 5-ethyl-6-(1-methyl-2-(morpholinomethyl)-1H-indol-5-yl)-2-oxo-1,2-dihydropyridine-3-carboxylic acid], for which the MIC in test [1] is below 1 µg/mL; in [2], 12.5 to 150 µg/mL (≈ 31.6 to 379 µM); in [3], 12.5 to 150 µg/mL (≈ 31.6 to 379 µM); in test [4], 12.5 to 150 µg/mL (≈ 31.6 to 379 µM); in test [5], 1 to 3.5 µg/mL (≈ 2.53 to 8.85 µM); in test [6] it was 3.5 to 12.5 µg/mL (≈ 8.85 to 31.6 µM). Moreover, the MIC in test [7] is 12.5 to 150 µg/mL (≈ 31.6 to 379 µM); in test [8], 12.5 to 150 µg/mL (≈ 31.6 to 379 µM); in [9], 1 to 3.5 µg/mL (≈ 2.53 to 8.85 µM).

As a reminder, the MIC is the least concentration at which growth counts as inhibited.
